Patent publication US9669000B2, “Pharmaceutical compositions comprising lignans and their derivatives for treating hyperplastic diseases” (Universität Innsbruck, priority 2008, dated 2017)
Where two headings read alike, the source gives them in different places.

Tests used:
[1] = test system: human vascular smooth muscle cells (SMCs); experiment: XTT cell proliferation assay, smooth muscle cells; assay type: cell-based; details: for IC50: XTT assay after 72 h, mean of three independent experiments, read-out: IC50, SMC proliferation-inhibitory activity
Source text: Human umbilical vein endothelial cells (HUVECs) were isolated from umbilical cords (kindly donated by the Gynecology and Obstetrics Department, Innsbruck Medical University) by enzymatic detachment using collagenase, as previously described; see Bernhard, FASEB J 17(15), 2302-4 (2003). Human umbilical vein smooth muscle cells (SMCs) were isolated from the same umbilical cords according to Chamley-Campbell, Physiol Rev 59(1), 1-61 (1979). SMCs were routinely passaged in 0.2% gelatine-coated (Sigma, Steinheim, Germany) polystyrene culture flasks (Becton Dickinson, Meylan Cedex, France) in Medium 231 (Cascade Biologics, Paisley, UK). The isolation and analysis of human umbilical cord ECs and SMCs has been approved by the Ethics Committee of the Innsbruck Medical University.
(§1) Cell proliferation was measured by the XTT cell proliferation assay (Biomol, Hamburg, Germany) as described by the manufacturer. The XTT assay is based on the ability of metabolic active cells to reduce the tetrazolium salt XTT to orange coloured compounds of formazan. The dye formed is water soluble and the dye intensity can be read at a given wavelength with a spectrophotometer. The intensity of the dye is proportional to the number of metabolic active cells. In addition to the XTT assay all proliferation-experiments were also evaluated by counting cells in a coulter counter.
as §1, with “As described above (Example 1) cell” for “Cell”, “cells.” for “cells. In addition to the XTT assay all proliferation-experiments were also evaluated by counting cells in a coulter counter.”

SMCs [2] = details: associated with upregulation of p21/WAF1; cited from earlier work
VCAM-1 [3] = details: ECs; cited from earlier work
SMCs [4] = details: caspase-dependent manner; cited from earlier work
human saphenous veins = experiment: Human saphenous vein organ culture model of intimal hyperplasia; details: added freshly every second day over 2 weeks
Experimental: (§2) Following fixation in 4% paraformaldehyde and dehydration of tissues from organ culture and mouse experimentation, tissues were embedded in paraffin (venae cavae from the in vivo experiments were embedded into mouse liver prior to fixation) and sections were prepared. Immunohistochemistry was performed with the Accustain Elastica Stain (HT25) kit (Sigma-Aldrich, USA) or the En Vision+System-HRP (DAB) (DakoCytomation, Denmark) according to the manufacturers instructions. Primary antibodies used were anti-p27/KIP-1 antibody (clone 57; BD Transduction Laboratories), and anti-CD31/PECAM-1 antibody (clone JC70A, Dako Cytomation). Image analyses were performed using the Image J software of the National Institute of Health (USA).

[5] = test system: human vascular smooth muscle cells (SMCs); experiment: Nuclear DNA content (cell cycle) analysis, SMCs; assay type: cell-based; details: 24 hours of incubation
Experimental: In order to investigate the effect of leoligin on the cellular level, isolated primary human vascular smooth muscle cells (SMCs) were incubated with the indicated concentrations of leoligin for the indicated times. […] Values shown are mean values from a representative experiment performed in triplicates.
(§3) For detection and/or quantification of cell death, forward/sideward light scattering analysis, the AnnexinV-propidium iodide method, and staining of nuclear DNA content (cell cycle analyses) were used as described; see Bernhard FASEB J 13(14), 1991-2001 (1999).

[6] = test system: primary human vascular endothelial cells (ECs); experiment: Cell viability by annexin V/propidium iodide method and FACS, ECs; assay type: cell-based; details: 48 hours
Experimental: (§4) Primary human vascular endothelial cells (ECs) were incubated with the indicated concentrations of leoligin for the indicated times. […] Values shown are mean values from a representative experiment performed in triplicates. […] Values shown are mean values from three independent experiments+/−S.D. The impact of leoligin on TNFalpha-induced surface expression of VCAM-1, ICAM-1, and E-selectin (E-Sel) is shown in the three diagrams in FIG. 4C. Data shown are mean fluorescence intensities (MFI) of representative experiments. […] After protein preparation, total cellular proteins were separated on polyacrylamide gels, gel were dried and analysed by exposure to x-ray films.
as §3

p27/KIP = experiment: Western blot of p27/KIP in SMCs; assay type: cell-based, human; details: SMCs incubated 24 hours; shift from 27 kD to 58 kD signal
Experimental: (§5) In order to investigate the effect of leoligin on the cellular level, isolated primary human vascular smooth muscle cells (SMCs) were incubated with the indicated concentrations of leoligin for the indicated times. […] Values shown are mean values from a representative experiment performed in triplicates. […] Values shown are mean values from three independent experiments+/−S.D. The histogram blots in FIG. 3C show the results from a DNA content analysis of control-treated or leoligin-treated SMCs after 24 hours of incubation (upper row, left histogram . . . solvent control; upper row, right histogram . . . leoligin).
Western blotting was performed as previously described; see Bernhard, Cell Death Differ 8(10), 1014-21 (2001). Primary antibodies used were anti-p27/KIP-1 antibody (clone 57; BD Transduction Laboratories).

[7] = test system: human vascular smooth muscle cells (SMCs); experiment: Cell death by AnnexinV-propidium iodide method and FACS, SMCs; assay type: cell-based; details: after 48 hour
Experimental: as §5, §3

[8] = test system: venous bypass graft intimal hyperplasia; experiment: Mouse model for vein graft disease (vena cava interposed into carotid artery); assay type: in vivo
Experimental: Before wound closure after the transplantation, a peradventitial depot of 100 μl of 0.9% NaCl (control) or 100 μl of 100 μM leoligin in 0.9% NaCl were applied. After 4 weeks conduits were removed and subjected to morphometric analyses and to immunohistochemistry. FIG. 5B: the upper two images show a Elastica van Giesson stain of sections of the venous conduits. White arrows indicate neointimal thickness which was analysed by morphometry (see FIG. 5A). Central images display a staining for the endothelial cell CD31/PECAM-1 antigen (brown, black arrows) combined with a hematoxilin stain. […] The abbreviations “Lu” and “Li” stand for the full terms “lumen” and “liver”, respectively.
In the applied mouse model the vena cava of a donor mouse was interposed into the carotid artery of a recipient mouse. After transplantation and prior to wound closure a 100 μl depot of 0.9% NaCl (control group) or 100 μM leoligin in 0.9% NaCl (leoligin group) was placed around the adventitia of the vein graft in the recipient mouse. 4 weeks after the intervention mice were sacrificed and the interposed venae cavae were harvested for analyses. […] For details on the surgical procedure see Schachner, Eur J Cardiothorac Surg 30(3), 451-63 (2006); Schachner, Heart Surg Forum 9(1), E515-E517 (2006). Animal experiments were approved by the Commission for Animal Testing Affairs of the Austrian Ministry for Science and Research.
as §2

VCAM-1 [9] = experiment: FACS analysis of TNFalpha-induced surface adhesion molecule expression on ECs; assay type: cell-based, human
Source text: (§6) Values shown are mean values from a representative experiment performed in triplicates.

[10] = test system: primary human vascular endothelial cells (ECs); experiment: Metabolic protein labelling with 35S-methionine/cysteine in ECs; assay type: cell-based
Experimental: as §4
Metabolic labelling with ^35S-methionine/cysteine was performed as previously described (Bernhard (2001), loc. cit.).

[11] = test system: primary human vascular endothelial cells (ECs); experiment: XTT cell proliferation assay, endothelial cells; assay type: cell-based
Source text: as §6

[12] = test system: intimal hyperplasia after balloon injury; details: in vivo; cited from earlier work
[13] = 100 μl of 100 μM leoligin, 4 weeks

Work on C/C=C(/C)C(=O)OC[C@H]1[C@@H](Cc2cc(OC)c(OC)c(OC)c2)CO[C@@H]1c1cc(OC)c(OC)c(OC)c1 [5,5′-dimethoxy-leoligin] yielded an IC50 ([1]; Homo sapiens) of 48.6 µM.

Work on C/C=C(/C)C(=O)OC[C@H]1[C@@H](Cc2ccc(O)c(OC)c2)CO[C@@H]1c1cc(OC)c(OC)c(OC)c1 [5-methoxy-leoligin] yielded an IC50 ([1]; Homo sapiens) of 45.9 µM.

In the case of C/C=C(/C)C(=O)OC[C@H]1[C@@H](Cc2ccc(OC)c(OC)c2)CO[C@@H]1c1cc(OC)c(OC)c(OC)c1 [5-methoxy-leoligin], the IC50 [1] is reported as 45.9 µM.

For C=CCc1ccc(O)c(-c2ccc(O)c(CC=C)c2)c1 [Honokiol, honokiol], the “cell cycle in SMCs” value (SMCs [2]) is listed as “arrest in the G1 phase of the cell cycle”.

In the case of C=CCc1ccc(O)c(-c2cc(CC=C)ccc2O)c1 [Magnolol, magnolol], the “TNFalpha-mediated VCAM-1 expression” value (VCAM-1 [3]) is listed as “inhibit TNFalpha-mediated VCAM-1 expression” and the “cell death in SMCs” value (SMCs [4]) is listed as “induce cell death in SMCs”.

With COc1cc(C[C@H]2CO[C@H](c3ccc(O)c(OC)c3)[C@H]2CO)ccc1O [lariciresinol, reference compound] the IC50 ([1]; Homo sapiens) was greater than 100 µM.

In the case of C/C=C(/C)C(=O)OC[C@H]1[C@@H](Cc2ccc(OC)c(OC)c2)CO[C@@H]1c1ccc(OC)c(OC)c1 [leoligin], the “intimal hyperplasia of saphenous veins in organ culture” value (human saphenous veins; 5 μM leoligin, p=0.003) is reported as “completely inhibited intimal hyperplasia”, the “pre-existing intimal hyperplasia of saphenous veins in organ culture” value (human saphenous veins; 50 μM leoligin, p<0.001) is reported as “even reversed pre-existing intimal hyperplasia” and the “cell cycle distribution (nuclear DNA content)” value [5] is reported as “massive accumulation of cells in the G1-phase”. The IC50 ([1]; Homo sapiens) was 54.5 µM, the “SMC proliferation (XTT assay, cell counting)” value ([1]; result in words) was “significant SMC proliferation inhibitory effect” and the “toxic or cell death-inducing effect on ECs” value [6] was “no toxic or cell death-inducing effect”. For the same compound, the “p27/KIP protein (Western blot)” value (p27/KIP) was “complete change in the appearance of p27/KIP protein”, the “cell death (apoptosis and necrosis) in SMCs” value [7] was “only a marginal increase in cell death” and the “endothelial layer (CD31 staining) of conduits” value [8, 13] was “intact”. For the same compound, the “neointimal thickness of vein grafts” value [8, 13] was “significantly reduced neointimal thickness”, the “p27/KIP staining of graft sections” value ([8]; four weeks after the application) was “stained positive for p27/KIP” and the “animals with no blood flow due to thromboses after 4 weeks” value ([8]; of 7 animals per group (3 in control)) was 2. The “intimal hyperplasia in vivo” value ([8]; periadvential reservoir 100 μl of 100 μM leoligin in 0.9% NaCl, 4 weeks) was “potently inhibited intimal hyperplasia in vivo”, the “TNFalpha-mediated surface expression of VCAM-1” value (VCAM-1 [9]) was “inhibited TNFalpha-mediated surface expression of VCAM-1” and the “protein synthesis in ECs” value [10] was “does not block protein synthesis”. The “proliferation of ECs” value [11] was “inhibited the proliferation of ECs”.

In the case of COc1cc([C@@H]2c3cc4c(cc3[C@H](O)[C@H]3COC(=O)[C@@H]23)OCO4)cc(OC)c1OC [picropodophyllin], the “intimal hyperplasia after balloon injury” value [12] is given as “inhibits intimal hyperplasia after balloon injury in vivo”.
